Measured values reported in paper PMC8668980, “Development of a versatile HPLC-based method to evaluate the activation status of small GTPases” (The Journal of Biological Chemistry, 2021).

Experiments:
DIRAS1 = target: T1, DIRAS1 (Homo sapiens, UniProt O95057); assay: IP-RP-HPLC of nucleotide co-purified with Flag protein from HeLa; assay type: cell-based; settings: nucleotide loaded in cells; 5 mM then 1 mM MgCl2 washes
T1 construct: Flag-tagged, dox-inducible in HeLa, anti-Flag immunopurified
T1 sequence (O95057 1-195): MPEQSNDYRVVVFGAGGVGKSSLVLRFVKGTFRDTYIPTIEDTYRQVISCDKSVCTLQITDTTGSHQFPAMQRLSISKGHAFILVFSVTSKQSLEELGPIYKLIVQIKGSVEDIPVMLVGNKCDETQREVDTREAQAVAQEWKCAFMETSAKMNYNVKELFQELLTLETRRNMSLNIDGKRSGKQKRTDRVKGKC

GST-RHEB [1] = target: T2, GST-RHEB (Homo sapiens, UniProt Q15382); assay: [3H]GDP-dissociation assay, filter binding; settings: labelled compound; 5 μM [3H]GDP preload with 10 mM EDTA, chase 200 μM GTPγS; 5 mM MgCl2, pH 7.5, 30 °C
T2 construct: residues 1-180, N-terminal GST fusion (pCold GST) kept, E. coli, glutathione-Sepharose purified

GST-RHEB [2] = target: T3, GST-RHEB (Homo sapiens, UniProt Q15382, P37L); assay: [3H]GDP-dissociation assay, filter binding; settings: labelled compound; 5 μM [3H]GDP preload with 10 mM EDTA, chase 200 μM GTPγS; 5 mM MgCl2, pH 7.5, 30 °C
T3 construct: residues 1-180, N-terminal GST fusion (pCold GST) kept, E. coli, glutathione-Sepharose purified

DIRAS2 = target: T4, DIRAS2 (Homo sapiens, UniProt Q96HU8); assay: IP-RP-HPLC of nucleotide co-purified with Flag protein from HeLa; assay type: cell-based; settings: nucleotide loaded in cells; 5 mM then 1 mM MgCl2 washes
T4 construct: Flag-tagged, dox-inducible in HeLa, anti-Flag immunopurified
T4 sequence (Q96HU8 1-196): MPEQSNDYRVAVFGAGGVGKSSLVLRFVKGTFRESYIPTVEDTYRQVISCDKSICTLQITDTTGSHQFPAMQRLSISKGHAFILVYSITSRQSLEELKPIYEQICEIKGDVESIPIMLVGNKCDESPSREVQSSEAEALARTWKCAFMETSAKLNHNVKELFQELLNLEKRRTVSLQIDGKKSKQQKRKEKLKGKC

HRAS = target: T5, HRAS (Homo sapiens, UniProt P01112); assay: as above; assay type: cell-based; settings: nucleotide loaded in cells; 5 mM then 1 mM MgCl2 washes
T5 construct: Flag-tagged, dox-inducible in HeLa, anti-Flag immunopurified

Flag-RHEB [3] = target: T6, Flag-RHEB (Homo sapiens, UniProt Q15382); assay: as above; assay type: cell-based; settings: nucleotide loaded in cells; 5 mM then 1 mM MgCl2 washes
T6 construct: Flag-tagged, dox-inducible in HeLa, anti-Flag immunopurified

Flag-RHEB [4] = target: T7, Flag-RHEB (Homo sapiens, UniProt Q15382, S68P); assay: as above; assay type: cell-based; settings: nucleotide loaded in cells; 5 mM then 1 mM MgCl2 washes
T7 construct: Flag-tagged, dox-inducible in HeLa, anti-Flag immunopurified

Flag-RHEB [5] = target: T8, Flag-RHEB (Homo sapiens, UniProt Q15382, P37L); assay: as above; assay type: cell-based; settings: nucleotide loaded in cells; 5 mM then 1 mM MgCl2 washes
T8 construct: Flag-tagged, dox-inducible in HeLa, anti-Flag immunopurified

Flag-RHEB [6] = target: T9, Flag-RHEB (Homo sapiens, UniProt Q15382, Q64L); assay: as above; assay type: cell-based; settings: nucleotide loaded in cells; 5 mM then 1 mM MgCl2 washes
T9 construct: Flag-tagged, dox-inducible in HeLa, anti-Flag immunopurified

GST-RHEB [7] = target: T10, GST-RHEB (Homo sapiens, UniProt Q15382, S68P); assay: single-turnover GTPase assay of bound GTP by IP-RP-HPLC; assay type: biochemical; settings: Flag-TSC1/2 beads (GAP); 5 mM MgCl2, pH 7.5, 30 °C
T10 construct: residues 1-180, N-terminal GST fusion (pCold GST) kept, E. coli, glutathione-Sepharose purified

GST-RHEB [8] = target: T2, GST-RHEB; assay: […]GTPγS filter binding time course; settings: labelled compound; 5 μM [35S]GTPγS, 5 mM MgCl2, pH 7.5, 30 °C

T2 sequence (Q15382 1-180): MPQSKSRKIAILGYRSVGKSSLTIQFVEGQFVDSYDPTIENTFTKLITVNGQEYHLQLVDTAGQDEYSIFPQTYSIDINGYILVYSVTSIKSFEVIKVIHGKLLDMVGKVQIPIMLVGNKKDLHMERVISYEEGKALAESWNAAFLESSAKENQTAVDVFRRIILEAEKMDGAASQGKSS
T5 sequence (P01112 2-186): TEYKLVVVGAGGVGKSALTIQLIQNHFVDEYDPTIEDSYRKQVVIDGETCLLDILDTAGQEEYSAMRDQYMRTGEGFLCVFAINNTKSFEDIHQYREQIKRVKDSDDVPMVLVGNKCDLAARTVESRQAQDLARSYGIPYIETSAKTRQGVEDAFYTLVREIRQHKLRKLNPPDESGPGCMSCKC
T3 sequence (Q15382 1-180 P37L): as the sequence (Q15382 1-180) above, with P37L counted along it
T10 sequence (Q15382 1-180 S68P): as the sequence (Q15382 1-180) above, with S68P counted along it
T7 sequence (Q15382 1-181 S68P): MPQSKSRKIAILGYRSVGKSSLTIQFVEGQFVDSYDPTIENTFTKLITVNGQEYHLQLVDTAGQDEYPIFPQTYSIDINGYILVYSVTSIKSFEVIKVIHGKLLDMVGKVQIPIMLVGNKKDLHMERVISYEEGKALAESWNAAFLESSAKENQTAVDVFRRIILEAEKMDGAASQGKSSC
T9 sequence (Q15382 1-181 Q64L): as the sequence (Q15382 1-181 S68P) above, with Q64L, P68S counted along it
T8 sequence (Q15382 1-181 P37L): as the sequence (Q15382 1-181 S68P) above, with P37L, P68S counted along it
T6 sequence (Q15382 1-181): as the sequence (Q15382 1-181 S68P) above, with P68S counted along it

## Nc1nc2c(ncn2[C@@H]2O[C@H](COP(=O)(O)OP(=O)(O)O)[C@@H](O)[C@H]2O)c(=O)[nH]1 [GDP]
DIRAS1
  IP-RP-HPLC of nucleotide co-purified with Flag protein from HeLa: We could reproducibly quantify the amount of GDP and GTP bound to each small GTPase
GST-RHEB [1]
  [3H]GDP-dissociation assay, filter binding: the dissociation rates of the WT and P37L proteins were comparable
GST-RHEB [2]
  [3H]GDP-dissociation assay, filter binding: the dissociation rates of the WT and P37L proteins were comparable
DIRAS2
  IP-RP-HPLC of nucleotide co-purified with Flag protein from HeLa: We could reproducibly quantify the amount of GDP and GTP bound to each small GTPase
HRAS
  IP-RP-HPLC of nucleotide co-purified with Flag protein from HeLa: We could reproducibly quantify the amount of GDP and GTP bound to each small GTPase
Flag-RHEB [3]
  IP-RP-HPLC of nucleotide co-purified with Flag protein from HeLa: Representative chromatogram of guanine nucleotides bound to Flag-RHEB/WT in HeLa cells

## Nc1nc2c(ncn2[C@@H]2O[C@H](COP(=O)(O)OP(=O)(O)OP(=O)(O)O)[C@@H](O)[C@H]2O)c(=O)[nH]1 [GTP]
DIRAS1
  IP-RP-HPLC of nucleotide co-purified with Flag protein from HeLa: We could reproducibly quantify the amount of GDP and GTP bound to each small GTPase
Flag-RHEB [4]
  IP-RP-HPLC of nucleotide co-purified with Flag protein from HeLa: both RHEB/P37L and RHEB/S68P showed increases in their GTP-bound forms
DIRAS2
  IP-RP-HPLC of nucleotide co-purified with Flag protein from HeLa: We could reproducibly quantify the amount of GDP and GTP bound to each small GTPase
Flag-RHEB [5]
  IP-RP-HPLC of nucleotide co-purified with Flag protein from HeLa: both RHEB/P37L and RHEB/S68P showed increases in their GTP-bound forms
Flag-RHEB [6]
  IP-RP-HPLC of nucleotide co-purified with Flag protein from HeLa: marked increase in the ratio of the GTP-bound form of RHEB/Q64L compared with RHEB/WT
HRAS
  IP-RP-HPLC of nucleotide co-purified with Flag protein from HeLa: We could reproducibly quantify the amount of GDP and GTP bound to each small GTPase
GST-RHEB [7]
  single-turnover GTPase assay of bound GTP by IP-RP-HPLC: it weakly but significantly promoted that of GST-RHEB/S68P

## Nc1nc2c(ncn2[C@@H]2O[C@H](COP(=O)(O)OP(=O)(O)OP(O)(O)=S)[C@@H](O)[C@H]2O)c(=O)[nH]1 [GTPγS]
GST-RHEB [8]
  [35S]GTPγS filter binding time course: GTPγS-binding rate of RHEB/S68P was enhanced compared with that of RHEB/WT and RHEB/P37L
